The values that follow come from US20240374738A1, “BIFUNCTIONAL COMPOUND CAPABLE OF DEGRADING RECEPTOR TYROSINE KINASE AND APPLICATION THEREOF” (TAIBIDI PHARMACEUTICAL TECHNOLOGY (SHIJIAZHUANG) CO., LTD., priority 2023, published 2024).

Assay type in all cases: cell-based
Assay [1] addresses T1, DDR1 (Homo sapiens, UniProt Q08345). The assay can be described thus: Experiments with inhibitors of the ubiquitin-proteasome system (DDR1 Western blot). Details: endogenous in cells; host or cells: unnamed tumor cells. The note with it: MG132 10 uM or MLN4924 1 uM for 6 hours, then TPD12140 100 nM 18 h. How it is done: Tumor cells were inoculated into 6-well plates with 1-3×10^5 cells per well, and the cell growth status was observed the next day. When the cells grew to about 80% confluence, the proteasome inhibitor MG132 (working concentration 10 uM) or the protein ubiquitination inhibitor MLN4924 (working concentration 1 uM) was added to the cell culture medium of the experimental group, and an equal volume of DMSO was added to the control group, and the incubation was continued for 6 hours. The medium in the well plates was discarded, washed twice with PBS, fresh medium was added, and compound TPD12140 (working concentration 100 nM) or an equal volume of DMSO was added to each group of cells, and the incubation was continued for 18 h. Western Blot was performed to detect the expression of DDR1 protein (same operation as above). The experiments were repeated three times or more, and the experimental data were statistically analyzed using GraphPad Prism software.

A further assay has as its system SNU5. The assay can be described thus: Growth inhibition of gastric cancer cells SNU5 (CCK-8). The note with it: Homo sapiens, SNU-5, half inhibitory concentration, 72 hours. In short, it runs like this:
(§1)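 MKN45 or SNU5 cells in 96-well plates were treated with compound dilution series in triplicate for 72 h. Viability was read by CCK-8 (1 h, absorbance 450 nm), and inhibition was calculated against blank and medium-only controls. IC50 came from concentration-response curves.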

Assay [2] addresses T1, DDR1. Briefly: Degradation of DDR1 in tumor cell MKN45 (Western blot). The note with it: MKN-45, maximum degradation percentage, MKN45 cells, 24 hours. More on the design: The degradation activity of the compounds against DDR1 in the MKN45 cell line; endogenous in cells; host or cells: MKN45. Summed up:
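MKN45 gastric cancer cells were treated with compound dilutions for 24 h at a final DMSO of 0.5%; the 2 mM–200 nM series is the added solution, not the final concentration. DDR1 in lysates was quantified by Western blot, normalized to GAPDH and expressed relative to blank control, giving DC50 and Dmax.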
In general terms: In western blotting, separated proteins are transferred to a membrane and probed.

Another assay relates to MKN45. The assay can be described thus: Growth inhibition of gastric cancer cells MKN45 (CCK-8). The conditions noted are these: Homo sapiens, MKN-45, half inhibitory concentration, 72 hours. Summed up:
as §1

The target in assay [3] is T1, DDR1. The assay can be described thus: Competition inhibition experiments (DDR1 Western blot). More on the design: endogenous in cells; host or cells: unnamed tumor cells. The note with it: TPD12140 100 nM plus different concentrations of competitor, 24 h. How it is done: Tumor cells were taken and inoculated into 6-well plates with 1×3×10^5 cells per well, and the cell growth status was observed on the next day. When the cells reached 80% confluence, TPD12140 (working concentration 100 nM) and different concentrations of cabozantinib or lenalidomide were added to the cell culture medium of the experimental group, and the control group was added with an equal volume of DMSO, and the incubation was continued for 24 h. Western Blot was performed to detect the expression of DDR1 protein (the same operation as above). The experiments were repeated three times or more, and the experimental data were statistically analyzed using GraphPad Prism software.

The structures appear in SMILES notation. Where a SMILES comes first, the peptide text is derived from it. The star is where a group is joined. Cbz = O=C(OCc1ccccc1)* Bounds are passed on as bounds.

T1 sequence (Q08345 19-913): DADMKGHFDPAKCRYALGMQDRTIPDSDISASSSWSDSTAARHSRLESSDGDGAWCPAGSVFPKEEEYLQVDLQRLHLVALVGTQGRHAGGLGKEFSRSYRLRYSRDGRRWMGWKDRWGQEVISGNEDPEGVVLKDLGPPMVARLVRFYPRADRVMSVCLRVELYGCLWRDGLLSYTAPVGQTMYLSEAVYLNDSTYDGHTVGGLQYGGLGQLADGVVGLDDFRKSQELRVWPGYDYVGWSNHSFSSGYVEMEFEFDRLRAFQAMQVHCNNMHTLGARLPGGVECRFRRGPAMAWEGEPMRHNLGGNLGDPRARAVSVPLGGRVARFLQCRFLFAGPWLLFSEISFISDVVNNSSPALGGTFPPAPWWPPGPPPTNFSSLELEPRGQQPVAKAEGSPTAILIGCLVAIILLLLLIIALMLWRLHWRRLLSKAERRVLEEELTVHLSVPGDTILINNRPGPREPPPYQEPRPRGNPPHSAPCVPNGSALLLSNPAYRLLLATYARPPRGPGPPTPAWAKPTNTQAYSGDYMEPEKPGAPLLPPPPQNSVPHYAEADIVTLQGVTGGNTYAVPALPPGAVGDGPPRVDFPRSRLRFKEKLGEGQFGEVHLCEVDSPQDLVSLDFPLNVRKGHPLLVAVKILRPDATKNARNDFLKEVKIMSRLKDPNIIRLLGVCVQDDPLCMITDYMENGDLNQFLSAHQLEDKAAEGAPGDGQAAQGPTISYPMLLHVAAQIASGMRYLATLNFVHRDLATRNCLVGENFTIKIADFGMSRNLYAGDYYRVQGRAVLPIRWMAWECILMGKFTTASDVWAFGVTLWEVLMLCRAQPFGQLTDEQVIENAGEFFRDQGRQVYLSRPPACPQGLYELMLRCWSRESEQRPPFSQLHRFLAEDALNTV

With `CC(C)C[C@@H](C=O)NC(=O)[C@H](CC(C)C)NC(=O)[C@H](CC(C)C)NC(=O)OCc1ccccc1` [MG132] (Cbz-Leu-Leu-Leu-aldehyde), the “effect of inhibitor on degradation of DDR1 by TPD12140” value at DDR1 [1] is “can inhibit the degradation of the compounds”.

For `NS(=O)(=O)OC[C@@H]1C[C@@H](n2ccc3c(N[C@H]4CCc5ccccc54)ncnc32)C[C@@H]1O` [MLN4924], the “effect of inhibitor on degradation of DDR1 by TPD12140” value at DDR1 [1] is “can inhibit the degradation of the compounds”.

For the compound `O=C1CCC(N2Cc3cc(C#CCCN4CC5CC(C4)N5CC4CCN(c5cc6nccc(Oc7ccc(NC(=O)C8(C(=O)Nc9ccc(F)cc9)CC8)cc7)c6cc5F)CC4)ccc3C2=O)C(=O)N1` (stereo not drawn) [TPD12237], the IC50 in the assay on SNU5 and in the assay with MKN45 was no more than 100 nM in each case. The compound further had a Dmax on DDR1 [2] of 65 to 75%.

Consider `COc1cc2c(Oc3ccc(NC(=O)C4(C(=O)Nc5ccc(F)cc5)CC4)cc3)ccnc2cc1N1CCC(CN2C3CC2CN(CCC=Cc2cc4c(cn2)C(=O)N(C2CCC(=O)NC2=O)C4)C3)CC1` (stereo not drawn) [TPD12238], for which the IC50 in the assay with SNU5 and in the assay with MKN45 was no more than 100 nM in each case. On DDR1 [2], this compound gave a Dmax of 65 to 75%.

Take `COc1cc2nccc(Oc3ccc(NC(=O)C4(C(=O)Nc5ccc(F)cc5)CC4)cc3)c2cc1OC` [cabozantinib, reference compound]: the IC50 in the assay with SNU5 and in the assay on MKN45 was no more than 100 nM each time. Also, the Dmax on DDR1 [2] is less than 50%.

`Nc1cccc2c1CN(C1CCC(=O)NC1=O)C2=O` (stereo not drawn) [lenalidomide]: on DDR1 [3], the “effect of competitor on degradation of DDR1 by TPD12140” value is recorded as “inhibits the degradation of DDR1 by the compound”.

A word on the IC50: it is the concentration at which inhibition is half-maximal. Lower therefore signals higher potency. The Dmax is the greatest extent of degradation seen. Low readings indicate a partial loss of target, high ones a fuller loss of target.
